One data set relates to Homo sapiens. Briefly: Drug metabolism in human assessed as retention time of parent compound at 10 mg, po by LC-MS and LC-MS/MS analysis. Format: ADME, organism-based. Particulars: in vivo.
As for `COc1ccc(OC(=O)N(CC(=O)O)[14C@@H](C)c2ccc(O[14CH2]Cc3nc(-c4ccccc4)oc3C)cc2)cc1`, the Retention_time amounted to 65.5 min.

The test system of a further data set is Homo sapiens. Nature of the data set: Drug level in human assessed as retention time treated with 10 mg, po of [14C]peliglitazar by LC-MS and LC-MS/MS analysis. It counts as ADME, organism-based.
Settings: not given
Take `Cc1oc(-c2ccccc2)nc1CC(=O)O`: the Retention_time stood at 18.5 min.

In the case of `COc1ccc(OC(=O)N(CC(=O)O)[C@@H](C)c2ccc(O)cc2)cc1`, the Retention_time was 21 min.

Consider `COc1ccc(OC(=O)N(CC(=O)O)[C@@H](C)c2ccc(OCCc3nc(-c4ccccc4)oc3CO)cc2)cc1`, for which the Retention_time was 39.5 min.

On to `COc1ccc(OC(=O)N(CC(=O)O)[C@@H](C)c2ccc(OCCc3nc(-c4ccc(O)cc4)oc3C)cc2)cc1`, for which the Retention_time is 42.3 min.

For the compound `COc1ccc(OC(=O)N(CC(=O)O)[C@@H](C)c2ccc(OCC(O)c3nc(-c4ccccc4)oc3C)cc2)cc1` (stereo not given in full), the Retention_time came to 46.8 min.

Turning to `C[C@@H](c1ccc(OCCc2nc(-c3ccccc3)oc2CO)cc1)N(CC(=O)O)C(=O)Oc1ccc(O)cc1`, the Retention_time was 27.6 min.

As for `Cc1oc(-c2ccccc2)nc1C(O)COc1ccc([C@H](C)N(CC(=O)O)C(=O)Oc2ccc(O)cc2)cc1` (stereo not given in full), the Retention_time turned out to be 32.1 min.

`Cc1oc(-c2ccccc2)nc1CCOc1ccc([C@H](C)N(CC(=O)O[C@@H]2O[C@H](C(=O)O)[C@@H](O)[C@H](O)[C@H]2O)C(=O)Oc2ccc(O)cc2)cc1`: the Retention_time was determined as 32.2 min.

As to `Cc1oc(-c2ccccc2)nc1CCOc1ccc([C@H](C)N(CC(=O)O)C(=O)Oc2ccc(O)cc2)cc1`, the Retention_time is 48.4 min.
